The record followed here is PMC4114018 (Science signaling, 2013).

Experiment [1] has as its target mouse GPR17 (mGPR17) (Mus musculus, UniProt Q6NS65). The experiment can be described thus: label-free DMR and second messenger assays, HEK293 cells. Type of experiment: cell-based. The note with it: agonist.
Experiment [2] deals with rat GPR17 (rGPR17) (Rattus norvegicus, UniProt Q09QM4). The experiment is described as above. Type of experiment: cell-based. The note with it: agonist.
rat GPR17 (rGPR17), sequence (Q09QM4 whole entry): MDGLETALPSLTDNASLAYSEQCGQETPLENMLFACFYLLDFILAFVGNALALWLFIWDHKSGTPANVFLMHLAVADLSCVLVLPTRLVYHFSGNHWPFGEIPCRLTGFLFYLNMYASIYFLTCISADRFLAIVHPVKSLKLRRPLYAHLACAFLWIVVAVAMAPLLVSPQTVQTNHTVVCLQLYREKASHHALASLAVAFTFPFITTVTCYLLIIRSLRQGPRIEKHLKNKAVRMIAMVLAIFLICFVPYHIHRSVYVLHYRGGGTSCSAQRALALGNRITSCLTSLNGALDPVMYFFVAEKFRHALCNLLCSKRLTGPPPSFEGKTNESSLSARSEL

mouse GPR17 (mGPR17), sequence (Q6NS65 whole entry): as the sequence (Q09QM4 whole entry) above, with D2N, T6A, A15S, S270A counted along it

`O=C(O)CCc1c(C(=O)O)[nH]c2cc(Cl)cc(Cl)c12` [compound 2, 2-carboxy-4,6-dichloro-1H-indole-3-propionic acid]: the EC50 entry is “concentration-dependent activation of rGPR17 and mGPR17 was observed” in experiment [1]; “concentration-dependent activation of rGPR17 and mGPR17 was observed” in experiment [2].
